Measurements as given in ChEMBL document CHEMBL3734752, “Acylhydrazone derivatives as potential anticancer agents: Synthesis, bio-evaluation and mechanism of action” (Bioorg Med Chem Lett, 2015).
≈ marks a conversion by molar mass, not a printed value. Calls of active or inactive are those of the source. No cut-off for these calls is given here.

Experiments:
[1] = (§1) Cytotoxicity against human HuH7 cells assessed as inhibition of cell proliferation at 40 ug/ml after 72 hrs by MTT assay; type: functional; settings: Huh-7, 72 h
HepG2 [2] = assay: Cytotoxicity against human HepG2 cells assessed as inhibition of cell proliferation after 72 hrs by MTT assay; type: functional, cell-based; settings: for IC50: HepG2, 72 h
[3] = (§2) Cytotoxicity against human BCG823 cells assessed as inhibition of cell proliferation after 72 hrs by MTT assay; type: functional, cell-based; settings: BCG823, 72 h
[4] = (§3) Cytotoxicity against human HuH7 cells assessed as inhibition of cell proliferation after 72 hrs by MTT assay; type: functional, cell-based; settings: Huh-7, 72 h
HepG2 [5] = assay: Induction of apoptosis in human HepG2 cells assessed as early apoptotic cells at IC50 concentration after 24 hrs by Annexin V-FITC/propidium iodide staining-based flow cytometry (reference value: 1.2 %); type: functional
HepG2 [6] = assay: Cytotoxicity against human HepG2 cells assessed as inhibition of cell proliferation at 40 ug/ml after 72 hrs by MTT assay; type: functional, cell-based
BCG823 [7] = assay: Cytotoxicity against human BCG823 cells assessed as inhibition of cell proliferation at 40 ug/ml after 72 hrs by MTT assay; type: functional, cell-based
Huh-7 [8] = assay: as §1; type: functional
BCG823 [9] = assay: as §2; type: functional, cell-based
HepG2 [10] = assay: Induction of apoptosis in human HepG2 cells assessed as viable cells at IC50 concentration after 24 hrs by Annexin V-FITC/propidium iodide staining-based flow cytometry (reference value: 97 %); type: functional
HepG2 [11] = assay: Induction of apoptosis in human HepG2 cells assessed as late apoptotic cells at IC50 concentration after 24 hrs by Annexin V-FITC/propidium iodide staining-based flow cytometry (reference value: 0.2 %); type: functional
HepG2 [12] = assay: Induction of apoptosis in human HepG2 cells assessed as necrotic cells at IC50 concentration after 24 hrs by Annexin V-FITC/propidium iodide staining-based flow cytometry (reference value: 1.6 %); type: functional
HepG2 [13] = assay: Induction of apoptosis in human HepG2 cells assessed as viable cells at 2 times IC50 after 24 hrs by Annexin V-FITC/propidium iodide staining-based flow cytometry (reference value: 97 %); type: functional
HepG2 [14] = assay: Induction of apoptosis in human HepG2 cells assessed as early apoptotic cells at 2 times IC50 after 24 hrs by Annexin V-FITC/propidium iodide staining-based flow cytometry (reference value: 1.2 %); type: functional
HepG2 [15] = assay: Induction of apoptosis in human HepG2 cells assessed as late apoptotic cells at 2 times IC50 after 24 hrs by Annexin V-FITC/propidium iodide staining-based flow cytometry (reference value: 0.2 %); type: functional
HepG2 [16] = assay: Induction of apoptosis in human HepG2 cells assessed as necrotic cells at 2 times IC50 after 24 hrs by Annexin V-FITC/propidium iodide staining-based flow cytometry (reference value: 1.6 %); type: functional
Huh-7 [17] = assay: as §3; type: functional, cell-based

Structure (SMILES)	IC50 (HepG2 [2]) [µg/mL]	IC50 [3] [µg/mL]	IC50 [4] [µg/mL]	other results
O=C(CSc1nc2ccccc2s1)N/N=C/c1c[nH]c2ccccc12	> 80	> 80	32.9 (≈ 89.7 µM)	inhibition at 40 µg/mL [1]: 55%
C/C(=N\NC(=O)c1ccc(CSc2nc3ccccc3s2)cc1)c1ccc([N+](=O)[O-])cc1	35.7 (≈ 77.2 µM)	31.3 (≈ 67.7 µM)	4.46 (≈ 9.64 µM)	–
Cc1cc(C)nc(SCc2ccc(C(=O)N/N=C/c3c[nH]c4ccccc34)cc2)n1	34.1 (≈ 82.2 µM)	35.5 (≈ 85.5 µM)	23.2 (≈ 55.9 µM)	–
C/C(=N\NC(=O)c1ccc(CSc2nc3ccccc3s2)cc1)c1ccc(C)c([N+](=O)[O-])c1	> 80	> 80	> 80	–
C/C(=N\NC(=O)c1ccc(CSc2nc(C)cc(C)n2)cc1)c1ccc(F)cc1	4.85 (≈ 11.9 µM)	3.88 (≈ 9.5 µM)	3.25 (≈ 7.96 µM)	Activity (HepG2 [5]): 10.3%; inhibition (HepG2 [6]): Active; inhibition (BCG823 [7]): Active; inhibition (Huh-7 [8]): Active; inhibition (HepG2 [2]): Dose-dependent effect; inhibition (BCG823 [9]): Dose-dependent effect; Activity (HepG2 [10]): 83.8%; Activity (HepG2 [11]): 1.4%; Activity (HepG2 [12]): 4.5%; Activity (HepG2 [13]): 76.3%; Activity (HepG2 [14]): 16.5%; Activity (HepG2 [15]): 2.3%; Activity (HepG2 [16]): 4.9%
O=c1[nH]cc(F)c(=O)[nH]1 [FLUOROURACIL]	36 (≈ 277 µM)	17.4 (≈ 134 µM)	10.4 (≈ 80 µM)	inhibition (HepG2 [2]): Dose-dependent effect; inhibition (BCG823 [9]): Dose-dependent effect; inhibition (Huh-7 [17]): Dose-dependent effect
O=C(CSc1nc2ccccc2s1)N/N=C1\C(=O)Nc2ccccc21	23.9 (≈ 65 µM)	17.7 (≈ 48 µM)	13.1 (≈ 35.6 µM)	inhibition (HepG2 [6]): Active; inhibition (BCG823 [7]): Active; inhibition (Huh-7 [8]): Active
COc1cc(/C=N/NC(=O)CSc2nc3ccccc3s2)cc(OC)c1OC	> 80	> 80	> 80	–
COc1cc(/C=N/NC(=O)c2ccc(CSc3nc4ccccc4s3)cc2)cc(OC)c1OC	> 80	> 80	> 80	–
C/C(=N\NC(=O)CSc1nc2ccccc2s1)c1ccc([N+](=O)[O-])cc1	> 80	35.7 (≈ 92.4 µM)	39.7 (≈ 103 µM)	–
C/C(=N\NC(=O)CSc1nc2ccccc2s1)c1ccc(C)c([N+](=O)[O-])c1	33 (≈ 82.3 µM)	17.8 (≈ 44.5 µM)	10.1 (≈ 25.1 µM)	inhibition (HepG2 [6]): Active; inhibition (BCG823 [7]): Active; inhibition (Huh-7 [8]): Active; inhibition (HepG2 [2]): Dose-dependent effect; inhibition (BCG823 [9]): Dose-dependent effect; inhibition (Huh-7 [17]): Dose-dependent effect
C/C(=N\NC(=O)c1ccc(CSc2nc(C)cc(C)n2)cc1)c1ccc(C)c([N+](=O)[O-])c1	> 80	> 80	> 80	–
O=C(N/N=C/c1c[nH]c2ccccc12)c1ccc(CSc2nc3ccccc3s2)cc1	> 80	> 80	7.74 (≈ 17.5 µM)	inhibition at 40 µg/mL [1]: 74%
COc1cc(/C=N/NC(=O)c2ccc(CSc3nc(C)cc(C)n3)cc2)cc(OC)c1OC	33.3 (≈ 71.3 µM)	36.8 (≈ 78.8 µM)	17.4 (≈ 37.3 µM)	–
O=C1Nc2ccccc2/C1=N/NC(=O)c1ccc(CSc2nc3ccccc3s2)cc1	5.71 (≈ 12.8 µM)	11.9 (≈ 26.7 µM)	4.58 (≈ 10.3 µM)	Activity (HepG2 [5]): 5.5%; inhibition (HepG2 [6]): Active; inhibition (BCG823 [7]): Active; inhibition (Huh-7 [8]): Active; inhibition (HepG2 [2]): Dose-dependent effect; inhibition (BCG823 [9]): Dose-dependent effect; Activity (HepG2 [10]): 89.3%; Activity (HepG2 [11]): 3.7%; Activity (HepG2 [12]): 1.6%; Activity (HepG2 [13]): 77.7%; Activity (HepG2 [14]): 14.5%; Activity (HepG2 [15]): 2.2%; Activity (HepG2 [16]): 5.6%
